Experimental data published in US20100105749A1, “CHEMICAL COMPOUNDS, PHARMACEUTICAL COMPOSITIONS AND METHODS” (SMITHKLINE BEECHAM CORPORATION, priority 2007, published 2010).

System: Cynomolgus monkeys
Assay: Bilirubin Monkey Test
Assay type: in vivo
Description: The product of Example 4 was formulated in 5% DMSO: 2% Tween 80: 10% SBE-CD with 1 molar equiv of HCl at 6 mg/ml and dosed at 30 mg/kg. Cynomolgus monkeys (each group n=6) had baseline blood drawn at day 0 at 9 am. On day 1, the monkeys were fed their morning meal at 7 am. After 1 hour, all left over food was removed and fast was begun. There was twice a day oral dosing of compound or vehicle on day 1 and day 2 of the fast, on day 3 there was an oral dose the morning (8 am) before the blood draw (9 am). Food was returned to the monkeys at this point. Oral dosing occurred at approximately 8:00 a.m. and 4:00 p.m. administered by oral gavage. Serum chemistries were screened on baseline and end of treatment blood draws. Significant changes were detected in bilirubin levels. Bilirubin increased in the fasted state, as expected (total, direct, and indirect bilirubin changed 2.0-, 2.4- and 1.92-fold, respectively over baseline).

[1] = fasted cynomolgus monkeys, 30 mg/kg oral gavage twice a day, end of treatment (day 3) vs baseline
[2] = serum, 48 hr fast, 30 mg/kg oral twice a day, n=6

O=C(O)c1ccc2nc(NC(c3ccccc3)c3ccccc3)n(CCc3ccccc3)c2c1.O=S(=O)(O)O [Example 4, 2-[(diphenylmethyl)amino]-1-(2-phenylethyl)-1H-benzimidazole-6-carboxylic acid sulfate]
direct bilirubin change over baseline [1]: 4.71 fold | indirect bilirubin change over baseline [1]: 3.53 fold | total bilirubin change over baseline [1]: 3.74 fold | DBIL (direct bilirubin) [2]: 0.165 ± 0.01 mg/dL | IBIL (indirect bilirubin) [2]: 0.565 ± .036 mg/dL | TBIL (total bilirubin) [2]: 0.73 ± 0.04 mg/dL
